According to ChEMBL document CHEMBL1158649, “Constituents of Pachygone ovata and Pharmacological Action of its Major Leaf Alkaloid” (J Nat Prod, 1979):
Activity calls are given as the source filed them. No cut-off for these calls is given here.

How the values were obtained:
[1] = Toxicity in Wistar albino rat assessed as mortality after 4 days; type: organism-based; details: in vivo, read-out: Activity
[2] = system: Mus musculus; test: Induction of hypnosis in mouse at 100 mg/kg, ip; type: functional; details: route intraperitoneal
[3] = Potentiation of amphetamine-induced lethal activity in Wistar albino rat assessed as mortality after 4 days; type: organism-based; details: in vivo, read-out: Activity
[4] = system: Hoplobatrachus tigerinus; test: Induction of tetanic convulsion in frog at 40 mg/kg dosed in ventral lymph sac; type: functional, organism-based; set-up: dose 40 mg/kg
[5] = Acute toxicity in ip dosed mouse; type: organism-based; details: in vivo
[6] = system: Mus musculus; test: Effect on central nervous system in mouse assessed as behavioral activity at 10 to 20 mg/kg, ip; type: functional, organism-based
[7] = system: Mus musculus; test: Effect on behavioral activity in mouse assessed as convulsion-induced hind limb extension at 30 to 40 mg/kg, ip; type: functional, organism-based; details: Hindlimb
[8] = system: Mus musculus; test: Potentiation of hexobarbitone-induced sleeping time in mouse at 5 mg/kg, ip; type: functional; details: route intraperitoneal
[9] = system: Mus musculus; test: Potentiation of hexobarbitone-induced sleeping time in mouse at 20 mg/kg, ip; type: functional; details: route intraperitoneal
[10] = system: Mus musculus; test: Increase in locomotor activity in mouse at 10 mg/kg, ip after 30 mins by actophotometer; type: functional, organism-based; set-up: dose 10 mg/kg
[11] = system: Rattus norvegicus; test: Increase in rectal temperature in Wistar albino rat at 5 mg/kg, ip by telethermometer relative to control; type: functional; details: route intraperitoneal
[12] = system: Rattus norvegicus; test: Increase in rectal temperature in Wistar albino rat at 10 mg/kg, ip by telethermometer relative to control; type: functional; details: route intraperitoneal
[13] = system: Rattus norvegicus; test: Increase in rectal temperature in Wistar albino rat at 20 mg/kg, ip by telethermometer relative to control; type: functional; details: route intraperitoneal
[14] = system: Rattus norvegicus; test: Antinociceptive activity in Wistar albino rat assessed as increase in latent period of tail flick response at 10 mg/kg, ip by tail-hot wire technique; type: functional; details: route intraperitoneal
[15] = system: Rattus norvegicus; test: Antinociceptive activity in Wistar albino rat assessed as increase in latent period of tail flick response at 20 mg/kg, ip by tail-hot wire technique; type: functional; details: route intraperitoneal
[16] = species: Mus musculus; test: Effect on behavioral activity in mouse in presence of mephenesin; type: functional, organism-based

## CC(N)Cc1ccccc1 (stereo unspecified) [AMPHETAMINE]
[1]
  mortality at 96 h: 10%

## CN1C(=O)NC(=O)C(C)(C2=CCCCC2)C1=O (stereo unspecified) [HEXOBARBITAL]
[2]
  Activity: 31.3 min

## COc1ccc(C[C@H]2c3cc(O)c(OC)cc3CCN2C)cc1O [(S)-RETICULINE]
[3]
  mortality at 96 h: 60%
[4]
  Activity: Active
[5]
  LD50: 56 mg/kg
[6]
  Activity: Active
[7]
  Activity: Active
[8]
  Activity: 56.2 min
[9]
  Activity: 23.7 min
[10]
  Activity: Active
[11]
  Activity: 0.36 °C
[12]
  Activity: 0.69 °C
[13]
  Activity: 1.1 °C
[14]
  Activity: 7.8 s
[15]
  Activity: 11.9 s

## Cc1ccccc1OCC(O)CO (stereo unspecified)
[16]
  Activity: inactive
